# Target: Mitogen-activated protein kinase kinase kinase kinase 1 (Homo sapiens, UniProt Q92918)
# Test: Binding Assay
# Method: Lanth: For the binding assay, 4 ul 2×HPK1 and Eu-anti-GST antibody were added to each well of the assay plate using a Multidrop reagent dispenser. The solutions were incubated in a 23 C incubator for 1 h. To each well of the assay plate was added 4 ul 2× Tracer-222 using a Multidrop reagent dispenser. The solutions were again incubated in a 23 C incubator for 1 h. The results of the assay were read using an Envision plate reader with the following parameters: TR_FRET, 340ex/615 and 665em; 100 usec Delay; and 200 usec integration.
# Chain of Mitogen-activated protein kinase kinase kinase kinase 1 (Q92918 whole entry): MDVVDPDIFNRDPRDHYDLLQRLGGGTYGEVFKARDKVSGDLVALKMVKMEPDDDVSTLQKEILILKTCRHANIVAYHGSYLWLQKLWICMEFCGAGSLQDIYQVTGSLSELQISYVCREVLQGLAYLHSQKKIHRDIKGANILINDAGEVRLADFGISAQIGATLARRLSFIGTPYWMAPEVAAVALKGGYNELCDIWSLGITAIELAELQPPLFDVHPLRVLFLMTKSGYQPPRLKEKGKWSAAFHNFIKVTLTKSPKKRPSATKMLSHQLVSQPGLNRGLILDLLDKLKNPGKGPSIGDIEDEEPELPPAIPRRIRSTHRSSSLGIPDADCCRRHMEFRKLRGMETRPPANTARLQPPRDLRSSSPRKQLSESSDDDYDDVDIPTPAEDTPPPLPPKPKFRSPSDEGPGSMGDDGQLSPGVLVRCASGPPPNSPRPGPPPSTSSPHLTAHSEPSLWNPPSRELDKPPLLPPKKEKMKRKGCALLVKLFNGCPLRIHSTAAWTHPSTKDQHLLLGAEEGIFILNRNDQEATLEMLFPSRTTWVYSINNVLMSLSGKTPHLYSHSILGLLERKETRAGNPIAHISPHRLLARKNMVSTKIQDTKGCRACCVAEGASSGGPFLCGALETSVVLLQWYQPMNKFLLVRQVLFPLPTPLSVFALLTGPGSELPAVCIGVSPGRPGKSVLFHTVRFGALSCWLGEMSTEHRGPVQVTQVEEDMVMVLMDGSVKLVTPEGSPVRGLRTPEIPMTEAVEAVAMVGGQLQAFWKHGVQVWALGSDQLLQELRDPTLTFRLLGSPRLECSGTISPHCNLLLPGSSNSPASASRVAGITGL
smiles,measurement,value
"Cn1cc(-c2cc3cc(NC(=O)[C@H]4C[C@H]4F)ncc3c(N)n2)cn1 [US11034692, Compound 4]",Ki,2.87 nM

# — BindingDB's records for patent US11034692 (Genentech, 2021)
